# From the supplement of paper PMC11451515
# System: P12-Ichikawa
# Test: cell viability relative to DMSO control; higher = less cytotoxic
# Conditions: 48 h
# Outline: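 Viability is expressed as a percentage of DMSO wells within each plate, and cell-free wells serve as background. Seeding densities in the 1536-well plates (5 μl) were 500 cells/well for NOMO1 or SEM leukemia cells and 1000 cells/well for P12-Ichikawa. Each line was adapted for at least four passages in each medium. Library compounds in DMSO were pin-dosed at 47 μM to 0.79 nM (11 points, threefold), and CellTiter-Glo One luminescence was read after 48 h at 37°C.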
# [1] = HPLM + 10% dialyzed FBS, 0.000781 µM
# [2] = HPLM + 10% dialyzed FBS, 0.00234 µM
# [3] = HPLM + 10% dialyzed FBS, 0.00702 µM
# [4] = HPLM + 10% dialyzed FBS, 0.0211 µM
# [5] = HPLM + 10% dialyzed FBS, 0.0632 µM
# [6] = HPLM + 10% dialyzed FBS, 0.19 µM
# [7] = HPLM + 10% dialyzed FBS, 0.569 µM
# [8] = HPLM + 10% dialyzed FBS, 1.71 µM
# [9] = HPLM + 10% dialyzed FBS, 5.12 µM
# [10] = HPLM + 10% dialyzed FBS, 15.4 µM
# [11] = HPLM + 10% dialyzed FBS, 46.1 µM
# [12] = RPMI 5 mM glucose + 10% FBS, 0.000781 µM
# [13] = RPMI 5 mM glucose + 10% FBS, 0.00234 µM
# [14] = RPMI 5 mM glucose + 10% FBS, 0.00702 µM
# [15] = RPMI 5 mM glucose + 10% FBS, 0.0211 µM
# [16] = RPMI 5 mM glucose + 10% FBS, 0.0632 µM
# [17] = RPMI 5 mM glucose + 10% FBS, 0.19 µM
# [18] = RPMI 5 mM glucose + 10% FBS, 0.569 µM
# [19] = RPMI 5 mM glucose + 10% FBS, 1.71 µM
# [20] = RPMI 5 mM glucose + 10% FBS, 5.12 µM
# [21] = RPMI 5 mM glucose + 10% FBS, 15.4 µM
# [22] = RPMI 5 mM glucose + 10% FBS, 46.1 µM
# [23] = RPMI 5 mM glucose + 10% dialyzed FBS, 0.000781 µM
# [24] = RPMI 5 mM glucose + 10% dialyzed FBS, 0.00234 µM
# [25] = RPMI 5 mM glucose + 10% dialyzed FBS, 0.00702 µM
# [26] = RPMI 5 mM glucose + 10% dialyzed FBS, 0.0211 µM
# [27] = RPMI 5 mM glucose + 10% dialyzed FBS, 0.0632 µM
# [28] = RPMI 5 mM glucose + 10% dialyzed FBS, 0.19 µM
# [29] = RPMI 5 mM glucose + 10% dialyzed FBS, 0.569 µM
# [30] = RPMI 5 mM glucose + 10% dialyzed FBS, 1.71 µM
# [31] = RPMI 5 mM glucose + 10% dialyzed FBS, 5.12 µM
# [32] = RPMI 5 mM glucose + 10% dialyzed FBS, 15.4 µM
# [33] = RPMI 5 mM glucose + 10% dialyzed FBS, 46.1 µM
SMILES,cell viability [1],cell viability [2],cell viability [3],cell viability [4],cell viability [5],cell viability [6],cell viability [7],cell viability [8],cell viability [9],cell viability [10],cell viability [11],cell viability [12],cell viability [13],cell viability [14],cell viability [15],cell viability [16],cell viability [17],cell viability [18],cell viability [19],cell viability [20],cell viability [21],cell viability [22],cell viability [23],cell viability [24],cell viability [25],cell viability [26],cell viability [27],cell viability [28],cell viability [29],cell viability [30],cell viability [31],cell viability [32],cell viability [33]
Nc1nc(N)c2nc(CNc3ccc(C(=O)NC(CCC(=O)O)C(=O)O)cc3)cnc2n1 (configuration not stated),103%,111%,110%,114%,59.2%,47.7%,31%,31.8%,44%,39.6%,29.7%,103%,103%,103%,123%,71.2%,37.9%,46.6%,47%,38.5%,51.2%,61%,105%,95.5%,105%,112%,86%,28.1%,25.8%,24%,25.9%,26.2%,26.2%
CNC[C@H](O)c1ccc(O)c(O)c1,96.9%,101%,94.8%,94.6%,102%,93.9%,90.2%,90.9%,91.7%,85.7%,85.8%,102%,97.3%,88.6%,99.3%,97.9%,94.9%,91.7%,89.5%,93.5%,89.6%,89.9%,87.9%,92.6%,91%,87.3%,90.6%,92.3%,81.9%,85.1%,82%,78.9%,78.2%
S=P(N1CC1)(N1CC1)N1CC1,110%,106%,113%,107%,112%,105%,108%,97.4%,88.5%,99.4%,85.3%,98.3%,99%,106%,102%,99.8%,102%,108%,104%,104%,94.9%,88.2%,99.6%,108%,103%,91.7%,101%,101%,96.2%,93.1%,86.9%,89.9%,76.3%
Cc1cc(C(C)(C)C)c(O)c(C)c1CC1=NCCN1,96.4%,98.3%,105%,98.3%,100%,104%,110%,96.6%,97.5%,71.1%,69.5%,92.6%,98.5%,98.5%,106%,99.2%,96.6%,99.1%,93.8%,103%,63.7%,60.5%,89.8%,89%,94.4%,95.5%,94.5%,104%,97.9%,105%,98.7%,53.8%,48.9%
